Patent publication US20250289813A1, “CDK INHIBITORS, PHARMACEUTICAL COMPOSITIONS, AND THERAPEUTIC APPLICATIONS” (ONQUALITY PHARMACEUTICALS CHINA LTD., priority 2022, published 2025)

Tests used:
[1] = target: CDK4/cyclin D1 (Homo sapiens (Human), UniProt P11802); experiment: CDK4 Caliper Mobility Shift assay; format: biochemical
Protocol: (§1) A Caliper Mobility Shift assay was used to determine the inhibitory activities of a compound against CDK4/cyclin D1 and CDK6/cyclin D1 in their respective kinase buffers (CDK4: 20 mM HEPES, pH 7.5, and 0.01% Triton X-100; CDK6: 50 mM HEPES, pH 7.5, and 0.0015% BRIJ-35). The CDK4/cyclin D1 and CDK6/cyclin D1 were obtained from PROQINASE and CARNA, respectively. A FAM-labeled peptide was obtained from GL.
(§2) The compound at predetermined concentrations was pre-incubated with CDK4/cyclin D1 or CDK6/cyclin D1 in a 384-well microplate at room temperature for 10 min. The FAM-labeled peptide and ATP were subsequently added to initiate the kinase reactions. The final enzyme concentrations were 15 nM for CDK4 and 7.5 nM for CDK6. The final ATP concentrations were […] for CDK4 and […] for CDK6. The microplate was allowed to incubate at 28° C. The kinase reactions were stopped by adding a stop buffer (100 mM HEPES, pH 7.5, 0.012% BRIJ-35, 0.2% Coating Reagent 3 (Caliper Life Sciences), and […]). Conversion data were recorded and utilized to calculate the percent inhibition values for each compound and an IC50 value was then determined. The results are summarized in Table 1, where the symbol “***” represents a value no greater than 200 nM, the symbol “**” represents a value greater than 200 nM but no greater than 500 nM, and the symbol “*” represents a value greater than 500 nM.

[2] = target: CDK6/cyclin D1 (Homo sapiens (Human), UniProt Q00534); experiment: CDK6 Caliper Mobility Shift assay; format: biochemical
Protocol: as §1, §2

[3] = test system: MCF-7 human breast cancer cells; experiment: CELLTITER-GLO luminescent cell viability assay; format: cell-based; conditions: MCF7, 192 h, MCF-7 cells, 8 days, read-out: EC50 (Effect on Cell Viability)
Protocol: A CELLTITER-GLO luminescent cell viability assay was carried out using MCF-7 human breast cancer cells under the normal growth condition. The MCF-7 human breast cancer cells were grown at 37° C. in a 5% CO2 humidified incubator in EMEM, supplemented 10% FBS, 0.01 mg/mL bovine insulin. The cells were seeded at a 3,000 cells/well in a 96-well tissue culture plate. The cells were allowed to adhere overnight in the incubator. A compound (5 μL) in a medium at a predetermined concentration. After the cells was incubated at 37° C. for 8 days, a CELLTITER-GLO detection solution (100 μL) was added. The cells were mixed on an orbital shaker for 5 min and then incubated for additional 10 min. The plate was read with an ENVISION reader. The results are summarized in Table 2, where the symbol “+++” represents a value no greater than 1 μM, the symbol “++” represents a value greater than 1 μM but no greater than 10 μM, and the symbol “+” represents a value greater than 10 μM.

Sequence of CDK4/cyclin D1 (P11802 whole entry): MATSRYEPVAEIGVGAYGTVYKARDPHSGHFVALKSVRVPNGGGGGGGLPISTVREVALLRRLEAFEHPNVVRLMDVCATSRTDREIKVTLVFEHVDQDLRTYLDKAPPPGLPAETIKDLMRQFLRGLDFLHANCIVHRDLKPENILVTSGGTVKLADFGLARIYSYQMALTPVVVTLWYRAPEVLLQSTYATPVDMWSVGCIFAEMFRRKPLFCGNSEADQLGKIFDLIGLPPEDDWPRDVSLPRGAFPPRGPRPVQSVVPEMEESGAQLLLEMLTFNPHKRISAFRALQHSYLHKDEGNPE
Sequence of CDK4/cyclin D1 (P24385 whole entry partner): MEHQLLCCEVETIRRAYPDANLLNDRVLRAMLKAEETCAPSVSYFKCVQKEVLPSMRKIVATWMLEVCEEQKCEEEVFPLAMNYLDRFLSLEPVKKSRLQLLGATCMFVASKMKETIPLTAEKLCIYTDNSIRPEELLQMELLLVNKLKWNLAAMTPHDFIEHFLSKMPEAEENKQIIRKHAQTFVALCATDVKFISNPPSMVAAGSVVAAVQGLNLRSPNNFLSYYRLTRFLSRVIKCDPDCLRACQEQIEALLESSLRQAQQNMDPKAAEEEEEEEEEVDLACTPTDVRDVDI
Sequence of CDK6/cyclin D1 (Q00534 whole entry): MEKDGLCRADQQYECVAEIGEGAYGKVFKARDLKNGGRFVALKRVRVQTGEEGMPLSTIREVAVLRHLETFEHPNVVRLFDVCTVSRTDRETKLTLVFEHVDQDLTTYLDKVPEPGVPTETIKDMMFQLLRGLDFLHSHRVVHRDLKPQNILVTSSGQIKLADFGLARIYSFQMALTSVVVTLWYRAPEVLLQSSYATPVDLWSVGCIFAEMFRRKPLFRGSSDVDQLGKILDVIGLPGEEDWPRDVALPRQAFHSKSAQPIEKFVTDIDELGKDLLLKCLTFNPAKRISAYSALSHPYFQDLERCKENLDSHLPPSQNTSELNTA
Sequence of CDK6/cyclin D1 (P24385 whole entry partner): as the sequence (P24385 whole entry partner) above

| IC50 [1] [nM] | IC50 [2] [nM] | EC50 [3] [nM] | SMILES |
| --- | --- | --- | --- |
| ≤ 200 | 200 to 500 | – | CC(=O)c1c(C)c2cnc(Nc3ccc(N4CCN(S(=O)(=O)O)CC4)cn3)nc2n(C2CCCC2)c1=O [Compound 6.1, 4-(6-((6-Acetyl-8-cyclopentyl-5-methyl-7-oxo-7,8-dihydropyrido[2,3-d]-pyrimidin-2-yl)amino)pyridin-3-yl)piperazine-1-sulfonic acid] |
| ≤ 200 | ≤ 200 | 1000 to 10000 | CC(=O)c1c(C)c2cnc(Nc3ccc(N4CCN(S(N)(=O)=O)C[C@@H]4C)cn3)nc2n(C2CCCC2)c1=O [Compound A3, (S)-4-(6-((6-acetyl-8-cyclopentyl-5-methyl-7-oxo-7,8-dihydropyrido[2,3-d]-pyrimidin-2-yl)-amino)pyridin-3-yl)-3-methylpiperazine-1-sulfonamide] |
| ≤ 200 | ≤ 200 | > 10000 | CC(=O)c1c(C)c2cnc(Nc3ccc(N4CCN(S(=O)(=O)NC(=O)OC(C)(C)C)CC4)cn3)nc2n(C2CCCC2)c1=O [Compound A4, tert-butyl ((4-(6-((6-acetyl-8-cyclopentyl-5-methyl-7-oxo-7,8-dihydropyrido[2,3-d]pyrimidin-2-yl)amino)pyridin-3-yl)piperazin-1-yl)sulfonyl)carbamate] |
| ≤ 200 | 200 to 500 | – | CC(=O)c1c(C)c2cnc(Nc3ccc(N4CCN(S(N)(=O)=O)CC4)cn3)nc2n(C2CCCC2)c1=O [Compound A5, 4-(6-((6-acetyl-8-cyclopentyl-5-methyl-7-oxo-7,8-dihydropyrido[2,3-d]pyrimidin-2-yl)amino)pyridin-3-yl)-piperazine-1-sulfonamide] |
| ≤ 200 | ≤ 200 | 1000 to 10000 | CC(=O)c1c(C)c2cnc(Nc3ccc(N4CCN(S(=O)(=O)N5CCCC[C@@H]5CO)CC4)cn3)nc2n(C2CCCC2)c1=O [Compound A7, (R)-6-acetyl-8-cyclopentyl-2-((5-(4-((2-(hydroxymethyl)piperidin-1-yl)sulfonyl)-piperazin-1-yl)pyridin-2-yl)amino)-5-methylpyrido[2,3-d]pyrimidin-7(8H)-one] |
| 200 to 500 | ≤ 200 | > 10000 | COCCOC(=O)NS(=O)(=O)N1CCN(c2ccc(Nc3ncc4c(C)c(C(C)=O)c(=O)n(C5CCCC5)c4n3)nc2)CC1 [Compound A8, 2-Methoxyethyl ((4-(6-((6-acetyl-8-cyclopentyl-5-methyl-7-oxo-7,8-dihydropyrido[2,3-d]pyrimidin-2-yl)amino)pyridin-3-yl)piperazin-1-yl)sulfonyl)carbamate] |
| 200 to 500 | ≤ 200 | – | CC(=O)c1c(C)c2cnc(Nc3ccc(N4CCN(S(=O)(=O)NC(=O)OCC(=O)O)CC4)cn3)nc2n(C2CCCC2)c1=O [Compound A11, 2-((((4-(6-((6-Acetyl-8-cyclopentyl-5-methyl-7-oxo-7,8-dihydropyrido[2,3-d]-pyrimidin-2-yl)amino)pyridin-3-yl)piperazin-1-yl)sulfonyl)carbamoyl)oxy)acetic acid] |
| ≤ 200 | ≤ 200 | – | CC(=O)c1c(C)c2cnc(Nc3ccc(N4CCN(S(=O)(=O)NC(=O)OCCNC(=O)[C@@H](C)N)CC4)cn3)nc2n(C2CCCC2)c1=O [Compound A16, (R)-2-(2-Aminopropanamido)ethyl ((4-(6-((6-acetyl-8-cyclopentyl-5-methyl-7-oxo-7,8-dihydropyrido[2,3-d]pyrimidin-2-yl)amino)pyridin-3-yl)piperazin-1-yl)sulfonyl)-carbamate] |
| ≤ 200 | ≤ 200 | – | CC(=O)c1c(C)c2cnc(Nc3ccc(N4CCN(S(=O)(=O)NC(=O)OCCNC(=O)[C@@H](N)CC(C)C)CC4)cn3)nc2n(C2CCCC2)c1=O [Compound A17, (S)-2-(2-Amino-4-methylpentanamido)ethyl ((4-(6-((6-acetyl-8-cyclopentyl-5-methyl-7-oxo-7,8-dihydropyrido[2,3-d]pyrimidin-2-yl)amino)pyridin-3-yl)piperazin-1-yl)-sulfonyl)carbamate] |
| ≤ 200 | ≤ 200 | – | CC(=O)c1c(C)c2cnc(Nc3ccc(N4CCN(S(=O)(=O)NC(=O)OCCNC(=O)CN)CC4)cn3)nc2n(C2CCCC2)c1=O [Compound A20, 2-(2-Aminoacetamido)ethyl ((4-(6-((6-acetyl-8-cyclopentyl-5-methyl-7-oxo-7,8-dihydropyrido[2,3-d]pyrimidin-2-yl)amino)pyridin-3-yl)piperazin-1-yl)sulfonyl)carbamate] |
| ≤ 200 | ≤ 200 | – | CC(=O)c1c(C)c2cnc(Nc3ccc(N4CCN(S(=O)(=O)NC(=O)OCCNC(=O)[C@H]5CCCN5)CC4)cn3)nc2n(C2CCCC2)c1=O [Compound A21, (R)-2-(Pyrrolidine-2-carboxamido)ethyl ((4-(6-((6-acetyl-8-cyclopentyl-5-methyl-7-oxo-7,8-dihydropyrido[2,3-d]pyrimidin-2-yl)amino)pyridin-3-yl)piperazin-1-yl)sulfonyl)-carbamate] |
| ≤ 200 | ≤ 200 | – | CC(=O)c1c(C)c2cnc(Nc3ccc(N4CCN(S(=O)(=O)NC(=O)C5CC5)CC4)cn3)nc2n(C2CCCC2)c1=O [Compound A38, N-((4-(6-((6-Acetyl-8-cyclopentyl-5-methyl-7-oxo-7,8-dihydropyrido[2,3-d]-pyrimidin-2-yl)amino)pyridin-3-yl)piperazin-1-yl)sulfonyl)cyclopropanecarboxamide] |
| ≤ 200 | 200 to 500 | – | CNS(=O)(=O)N1CCN(c2ccc(Nc3ncc4c(C)c(C(C)=O)c(=O)n(C5CCCC5)c4n3)nc2)CC1 [Compound A46, 4-(6-((6-Acetyl-8-cyclopentyl-5-methyl-7-oxo-7,8-dihydropyrido[2,3-d]-pyrimidin-2-yl)amino)pyridin-3-yl)-N-methylpiperazine-1-sulfonamide] |
| 200 to 500 | 200 to 500 | – | CC(=O)c1c(C)c2cnc(Nc3ccc(N4CCN(S(=O)(=O)N(C)C)CC4)cn3)nc2n(C2CCCC2)c1=O [Compound A50, 4-(6-((6-Acetyl-8-cyclopentyl-5-methyl-7-oxo-7,8-dihydropyrido[2,3-d]-pyrimidin-2-yl)amino)pyridin-3-yl)-N,N-dimethylpiperazine-1-sulfonamide] |
| ≤ 200 | ≤ 200 | – | CC(=O)c1c(C)c2cnc(Nc3ccc(N4CCN(S(=O)(=O)n5ccnc5N)CC4)cn3)nc2n(C2CCCC2)c1=O [Compound A57, 6-Acetyl-2-((5-(4-((2-amino-1H-imidazol-1-yl)sulfonyl)piperazin-1-yl)pyridin-2-yl)amino)-8-cyclopentyl-5-methylpyrido[2,3-d]pyrimidin-7(8H)-one] |
| – | – | ≤ 1000 | CC(=O)c1c(C)c2cnc(Nc3ccc(N4CCN(S(=O)(=O)n5ccnc5)CC4)cn3)nc2n(C2CCCC2)c1=O [Compound A58, 2-((5-(4-((1H-Imidazol-1-yl)sulfonyl)piperazin-1-yl)pyridin-2-yl)amino)-6-acetyl-8-cyclopentyl-5-methylpyrido[2,3-d]pyrimidin-7(8H)-one] |
| ≤ 200 | 200 to 500 | – | CC(=O)c1c(C)c2cnc(Nc3ccc(N4CCN(S(=O)(=O)OC5CCCC5)CC4)cn3)nc2n(C2CCCC2)c1=O [Compound B4, Cyclopentyl 4-(6-((6-acetyl-8-cyclopentyl-5-methyl-7-oxo-7,8-dihydropyrido[2,3-d]pyrimidin-2-yl)amino)pyridin-3-yl)piperazine-1-sulfonate] |
| ≤ 200 | ≤ 200 | – | CC(=O)c1c(C)c2cnc(Nc3ccc(N4CCN(S(=O)(=O)C(C)C)CC4)cn3)nc2n(C2CCCC2)c1=O [Compound C1, 6-acetyl-8-cyclopentyl-2-[[5-(4-isopropylsulfonylpiperazin-1-yl)-2-pyridyl]-amino]-5-methylpyrido[2,3-d]pyrimidin-7-one] |

| SMILES | IC50 [1] [nM] | IC50 [2] [nM] | EC50 [3] [nM] |
| --- | --- | --- | --- |
| CC(=O)c1c(C)c2cnc(Nc3ccc(N4CCN(S(=O)(=O)NC(=O)C5CCOCC5)CC4)cn3)nc2n(C2CCCC2)c1=O [Compound A40, N-((4-(6-((6-Acetyl-8-cyclopentyl-5-methyl-7-oxo-7,8-dihydropyrido[2,3-d]-pyrimidin-2-yl)amino)pyridin-3-yl)piperazin-1-yl)sulfonyl)tetrahydro-2H-pyran-4-carboxamide] | ≤ 200 | ≤ 200 | – |
